Assay [1] has as its system mice with APAP-induced liver injury. Kind of assay: Acetaminophen (APAP)-induced liver injury in mouse. The format is in vivo. Conditions: for ALT (U/L): 5 mg/kg i.p. once daily for five days, then APAP 500 mg/kg, 8-week age mice, serum, vehicle 786 ± 111. The text has this: Methods: Acetaminophen (APAP)-induced liver injury in mouse is a commonly used model to study drugs protecting liver. Overdose of APAP causes liver injury by inducing the production of reactive oxygen species and reactive nitrogen species, and excessive consumption of reductive substances such as antioxidant glutathione (GSH), leading to the reduction of GSH in vivo, and the following upregulation of the activities of the aspartate aminotransferase (AST), the alanine aminotransferase (ALT) and the lactate dehydrogenase (LDH), which will result in liver inflammation and necrosis. In this example, the APAP-induced liver injury was used to detect the protection and repair functions of our compounds in liver injury.
One-year or 8-week age mice were maintained under environmentally controlled conditions with free access to standard chow diet and water. Animal experiments were conducted in the barrier facility of the Laboratory Animal Center, Xiamen University, approved by the Institutional Animal Use and Care Committee of Xiamen University, China.
Compounds were solved with DMSO and then prepared to work concentration with 40% HBC (2-hydroxypropyl-β-cyclodextrin) in which the final work concentrations of compounds are 5 mg/kg body weight, 10 mg/kg or 20 mg/kg in 100 μl injection volume and the concentration of DMSO is 10%. Compounds were intraperitoneal (i.p.) injected once daily for five days. For Feroline and Tschimganine, one-year age mice were used in the experiment. For other compounds, 8-week age mice were used. […] For Tschimganine, 20 mg/kg dose of compound was administered to mice. For other compounds, 5 mg/kg dose of compounds were administered to mice. Six hours after the fifth injection, 500 mg/kg body weight of APAP solved in PBS was i.p. injected to the mice. 24 hours later, mice were sacrificed. Part of each liver was fixed in 4% paraformaldehyde, and the liver histology characterization was analyzed by haematoxylin and eosin (H&E) staining with paraffin-embedded sections by standard procedures. Other liver tissues were collected for detecting the GSH levels, and the mRNA expression of genes involved in liver repairing, such as GPX1 and UGT1a1, by RT-PCR. The serums were collected to measure enzymes activities including AST, ALT and LDH. For the synthetic derivatives, ALT and GSH were selected as indicating markers for the function of these compounds.

The subject of assay [2] is db/db mice. Kind of assay: Serum/blood metabolic parameters in high-fat diet fed db/db mice. The format is in vivo, mouse. The gist of the method: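 db/db mice aged 8–10 weeks on high-fat diet received compounds i.p. once daily for 7, 10, 11 or 14 days, then were fasted 6 h and sacrificed. Serum glucose (glucose oxidase), insulin (ELISA), cholesterol, FFA and triglycerides measured by kits; some blood glucose by tail strips after the 6th injection and 16 h fast.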

Assay [3] concerns inflammatory cytokines in tissues of db/db mice. The assay can be described thus: Inflammatory cytokine mRNA levels in tissues of high-fat diet fed db/db mice (RT-PCR). Conditions: 5 mg/kg; for mRNA level of iNOS (fold), Liver tissue: vehicle 1.06 ± 0.14; for mRNA level of iNOS (fold), Colon tissue: vehicle 1.12 ± 0.23. The format is in vivo, mouse. The gist of the method:
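Cytokine and marker transcripts (iNOS, IFNγ, TGFβ, TNFα, COX2, IL-1β, IL-6, SAA1, MIP-1α, CD36) quantified by RT-PCR in liver, kidney and white adipose tissue of high-fat diet fed db/db mice.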

Assay [4] concerns SOD2. Kind of assay: mRNA level of antioxidant gene SOD2 in livers of db/db mice. The format is in vivo, mouse. Conditions: 10 mg/kg, vehicle 1 ± 0.3.
For assay [5], the system named is collagen related genes in mice livers. Kind of assay: Liver mRNA levels of collagen related genes in mice of Example 5 (RT-PCR). It is filed as in vivo, mouse. To be noted: 10 mg/kg. The text has this:
NAFLD with excessive fat accumulation in liver will affect the blood and oxygen supplies to liver and the metabolism of liver organ, resulting in amounts of cell swelling, inflammatory infiltration and necrosis in liver. […] The levels of various collagen contents are higher in patients with liver cirrhosis. Masson's staining is a three-color staining protocol used in histology. It is widely used to study hepatic pathologies (cirrhosis). It's an authoritative and classic method to detect the existence and extend of accumulation of the collagen fiber. Sirius Red staining is also presented as a method for collagen determination. In this example, the Masson's staining and […] were performed to detect the collagen deposit in high fat diet fed db/db mice in Example 5. The Masson's staining kit (Nanjing Jiancheng Engineering Institute, China) was used for the staining of liver sections in Example 5. The Sirius red staining is performed as standard procedure. RT-PCR was used detect the expression of collagen and related genes such as α1(I) collagen, α2(I)collagen, α-SMA and MCP-1 in mice livers.

SMILES strings stand for the structures. Marks after values point to notes of the source that are not given here.

For `Nc1ccc(C(=O)OC2CCCCCCC2)cc1` [XD-16, cyclooctyl 4-aminobenzoate], the “ALT (U/L)” value in assay [1] was 127 ± 46 ^b U/L. Moreover, the “Serum Glucose (mg/dl)” value in assay [2] (10 mg/kg, treat for 10 days, vehicle 527 ± 63) is on record as 404 ± 46^a mg/dl. Also, in assay [3], the “mRNA level of iNOS (fold), Liver tissue” value is 0.39 ± 0.18^a fold and the “mRNA level of iNOS (fold), Colon tissue” value is reported as 0.42 ± 0.22^a fold. The “mRNA level of SOD2 (fold)” value in assay [4] was 1.5 ± 0.1 ^b fold.
Consider `Cc1cc(C(=O)OC2CCCCCCC2)ccc1O` [XD-17, cyclooctyl 4-hydroxy-3-methylbenzoate], for which the “ALT (U/L)” value in assay [1] was 117 ± 39 ^c U/L. For the same compound, in assay [4], the “mRNA level of SOD2 (fold)” value is 1.8 ± 0.3 ^a fold.
For `Cc1cc(C(=O)OC2CC3CCC2(C)C3(C)C)ccc1N` (stereo not drawn) [XD-4, 1,7,7-trimethyl-bicyclo[2.2.1]-heptan-2-yl 4-amino-3-methylbenzoate], in assay [1], the “ALT (U/L)” value is 236 ± 65 ^a U/L. Also, in assay [3], the “mRNA level of iNOS (fold), Liver tissue” value is reported as 0.41 ± 0.1^a fold and the “mRNA level of iNOS (fold), Colon tissue” value was 0.53 ± 0.37^a fold. Moreover, the “mRNA level of SOD2 (fold)” value in assay [4] is reported as 1.6 ± 0.1 ^b fold.
For `CC1(C)[C@@H]2CC[C@@]1(C)[C@@H](OC(=O)c1ccc(O)cc1)C2` [Tschimgine], in assay [1] (10 mg/kg (Tschimganine 20 mg/kg) i.p. five days, then APAP, compared to severe liver injury in control group), the “Liver morphology by H&E staining (FIG. 1)” value was “almost normal liver morphology”. The “expression levels of GPX1 and UGT1α1 in liver” value in assay [1] (mRNA by RT-PCR, vs vehicle control group, Table 5 (not given)) is reported as “significantly upregulated”. Further, in assay [1] (vs vehicle control group, Table 5 (not given)), the “activities of serum AST, ALT and LDH” value is on record as “dramatically lower”. Moreover, in assay [2] (10 mg/kg for 11 days, vehicle 96 ± 16), the “Serum Triglyceride (mg/dl)” value is 38 ± 8^a mg/dl. Further, the “Serum Cholesterol (mg/dl)” value in assay [2] (10 mg/kg for 11 days, vehicle 121 ± 13) is on record as 96 ± 3^a mg/dl. The “Serum FFA (μM)” value in assay [2] (10 mg/kg for 11 days, vehicle 371 ± 27) is listed as 302 ± 21^a μM. Moreover, the “Blood Glucose (mg/dl)” value in assay [2] (10 mg/kg, 11 days, tail blood after the 6th injection and 16 h fast, vehicle 452 ± 24) is 252 ± 54^b mg/dl. The “Relative mRNA level of α-SMA” value in assay [5] (vehicle 1 ± 0.1) is reported as 0.47 ± 0.1^a. For the same compound, the “Relative mRNA level of α2(I) collagen” value in assay [5] (vehicle 1.1 ± 0.1) is 0.75 ± 0.9^a. In assay [5] (vehicle 1.1 ± 0.2), the “Relative mRNA level of α1(I) collagen” value is reported as 0.6 ± 0.13^a.

(Values after patent publication US20180116993A1, “MODULATORS OF FARNESOID X RECEPTOR AND METHODS FOR THE USE THEREOF” (XIAMEN UNIVERSITY, priority 2015, published 2018).)
